Measurements as given in patent US8415312B2, “Compound which is a nystatin derivative” (Biosergen AS, priority 2007, dated 2013).
Values after ≈ are worked out from the molar mass of the structure shown. Values joined by “and” are separate entries in the source; they are usually repeats but may differ in a detail not shown here. Equal values may be shown once.

How the values were obtained:
[1] = tested on: Candida albicans ATCC 14053; assay: Antifungal susceptibility study (1), broth microdilution MIC; format: cell-based; conditions: lowest concentration preventing any visible growth, read at 48 hours, 35° C., RPMI 1640 pH 7.0
Outline: (§1)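 Broth microdilution in test medium at pH 7.0 with two-fold compound dilutions (DMSO stocks diluted 50-fold into medium), inoculated with freshly grown yeast cultures. Plates were incubated without agitation at 35° C. for C. albicans or 25° C. for C. humicolus. MIC was taken as the concentration with no visible growth, read at 48 hours.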

[2] = tested on: Cryptococcus humicolus ATCC 9949; assay: as above; format: cell-based; conditions: lowest concentration preventing any visible growth, read at 48 hours, 25° C., RPMI 1640 pH 7.0
Outline: as §1

[3] = tested on: Aspergillus niger ATCC 16404; assay: as above; format: cell-based; conditions: lowest concentration preventing any visible growth, read at 48 hours, 35° C., RPMI 1640 pH 7.0
Outline: (§2)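 Broth microdilution was run at pH 7.0 with compounds diluted from DMSO solutions and mixed 1:1 with conidial inoculum. Spore suspensions were adjusted to OD530 0.09-0.11 for A. niger or 0.15-0.17 for F. oxysporum, then diluted 1:50. Plates were incubated at 35° C without agitation, and MIC was read at 48 hours as absence of visible growth.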

[4] = tested on: Fusarium oxysporum VKM F-140; assay: as above; format: cell-based; conditions: lowest concentration preventing any visible growth, read at 48 hours, 35° C., RPMI 1640 pH 7.0
Outline: as §2

human blood erythrocytes = assay: In vitro toxicity study, haemolysis (Table 10); format: cell-based; conditions: for Haemolysis of human blood erythrocytes: individual blood samples # 1-3
[5] = tested on: yeasts and filamentous fungi (moulds); assay: Antifungal susceptibility study (1), overall comparison across the test organisms; format: cell-based; conditions: Table 5 MICs
Procedure: The organisms used for susceptibility testing were: Candida albicans ATCC 14053, Cryptococcus humicolus ATCC 9949, Aspergillus niger ATCC 16404 and Fusarium oxysporum VKM F-140 (=CMI, IMI 90473). Organisms were stored on potato dextrose agar […] 50% glycerol solution at -70° C. For short-term storage, stock cultures were stored on agar […] 4° C. The cultures of yeasts were sub-cultured onto Sabouraud dextrose (SAB) agar and incubated for 24 hours at 35° C. (Candida albicans) or for 48 hours at 25° C. (Cryptococcus humicolus) to obtain a freshly grown pure culture. The cultures of moulds were sub-cultured onto potato dextrose agar and incubated for 7 days at 35° C. […] (Fusarium oxysporum) to ensure maximum sporulation. Sterile 96-well flat-bottomed microtitration plates were used for testing. 100 μl of diluted inocula were dispensed into each microdilution well containing 100 μl of the double dilutions of compounds. Drug-free and yeast/mould-free controls were included. Microdilution trays were incubated at 35° C. (Candida albicans and moulds) or 25° C. (Cryptococcus humicolus) without agitation and observed for the presence or absence of visible growth. […] Minimal inhibitory concentrations (MICs) were read at 48 hours.

erythrocytes = assay: In vitro toxicity study, haemolysis (Tables 11 and 12); format: cell-based, horse; conditions: for Haemolysis of erythrocytes, Mean ± SE: 5 μg/mL (Table 11); for Haemolysis of erythrocytes, Mean ± S.E.M.: 25 μM (Table 12)
Procedure: The toxicity of various nystatin derivatives was tested at 2 and 5 μg/mL and at 25 μM.
Compounds were dissolved in DMSO at 5 mg/mL and 0.1 mL samples with different concentrations were prepared in DMSO. The samples were mixed with 0.9 mL PBS buffer containing 2.5% horse blood (PBS-HB; kept on ice) and incubated at 37° C. for 30 min without agitation.
Cells were pelleted by centrifugation at 5000 rpm for 5 min and haemolysis was evaluated by measuring OD545. 100% haemolysis was defined as the OD545 value obtained from a suspension of 2.5% horse blood in distilled water.

[6] = tested on: Candida albicans ATCC 10231; assay: Antifungal susceptibility study (2), MIC50 by OD490 growth; format: cell-based; conditions: 50% growth inhibition from regression curve, M19 medium without NaCl, 30° C.
Procedure: The anti-fungal activity of several of the nystatin derivatives was further investigated. […] The anti-fungal activity of a number of the nystatin derivatives was therefore determined in a method which is designed to be more sensitive.
The test organism used for the further testing of polyene macrolide bioactivity was Candida albicans ATCC 10231, grown in 120 μl of standard M19 medium without NaCl (with an inoculum of 1000 cfu per well) and 30 μl of diluted polyene macrolide samples. The antibiotics were diluted in MeOH in series ensuring a spectrum of concentrations which yielded results ranging from complete growth inhibition to no inhibition of the test organism. The test organism cultures with antibiotic dilutions were incubated in 96-well microtiter plates at 30° C. without shaking, and growth was measured as OD490 after 12, 14 and 16 hours on a SpectraMax Plus microtiter plate reader. OD was plotted against antibiotic concentration, and MIC50 was estimated from the regression curve at 50% growth inhibition.

[7] = tested on: mice (C57B1/6xDBA/2)F1 B6D2F1; conditions: single injection into tail vein, probit analysis
Procedure: (§3) Male mice of hybrids of first generation (C57B1/6xDBA/2)F1 B6D2F1, weight 20-22 g., received from the Central farm. “Kryukovo” of Russian Academies of Medical Science (RAMS) were used. Animals were maintained in a vivarium in plastic cages (with hardwood bedding in environmentally controlled conditions: 24±1° C., 12/12 hours light/dark cycle) on a standard diet of bricketed forages with easy access to drinking water (ad libitum). After a 2-week quarantine period, healthy animals were used in experimental work.
(§4) The solutions were prepared as follows: dry antibiotic substances (5 mg) were mixed with dry sodium deoxycholate (4.1 mg) in a sterile glass vial. 10 mL of phosphate buffer (NaH2PO4—1.59 g; Na2HPO4—0.96 g; H2O—to 100 mL) was added to the mix and the suspension was immediately subjected to vigorous shaking for 10 minutes until homogeneous suspensions were formed.
Preparations of amphotericin B and S44HP were also prepared in the same way.
The antibiotic preparations were singly injected into the mice's tail vein within 1-1.5 hours after the preparation of solutions. […] Each antibiotic was used in a range of doses resulting in 0% to 100% lethality and a minimum of 3 intermediate doses. Animals were randomized into groups, each containing 6 mice.

[8] = tested on: Candida albicans (strain 14053 ATCC); assay: In vivo antifungal activity, kidney burden in infected mice; conditions: colonies per 1 g of kidney tissue, day 5, individual mice
Procedure: as §3, §4
Animals were infected intravenously with Candida albicans culture at a dose of 1.0 million CFU/mouse (volume 0.1 mL). 30 minutes after infection, the antifungal agents were introduced intravenously into the mice at various doses in a volume of 0.2 mL (at a rate of 0.2 mL/30 second). Each dose was administered daily for four days including the day of infection (0, 1, 2 and 3 days).
As a control, there was a group of untreated mice (infected in the same way with Candida albicans). Also there was a “placebo” group of non-infected animals which were intravenously administered (in the same volume as antifungal agent preparations) 0.2 mL of solvent (phosphatic buffer +5% glucose (1:1)).
On the 5th day of experiment, mice were weighed and euthanized (killed) by a cervical dislocation. Then, in sterile conditions, the Candida albicans burden of each mouse was determined by counting of viable homogenates from the kidneys. The kidneys were removed aseptically and weighed, then pounded in porcelain mortars with sterile corundum. Dilutions of the resulting suspensions were prepared and sowed on Petri dishes with agar Saburo, incubated for 24 hours at a temperature of 35° C. Developed colonies of Candida albicans were then counted and their quantity calculated on the basis of 1 g of kidney tissue.

[9] = 5 μg/mL, individual blood samples # 1-3 (Table 11)
[10] = 25 μM, individual blood samples (Table 12)

SMILES	MIC Candida albicans ATCC 14053 [1] [µg/mL]	MIC Cryptococcus humicolus ATCC 9949 [2] [µg/mL]	MIC Aspergillus niger ATCC 16404 [3] [µg/mL]	MIC Fusarium oxysporum VKM F-140 [4] [µg/mL]	Haemolysis of human blood erythrocytes, MEAN ± SE (human blood erythrocytes; 2 μg/mL) [%]	Haemolysis of human blood erythrocytes (human blood erythrocytes; 2 μg/mL)	Haemolysis of human blood erythrocytes, MEAN ± SE (human blood erythrocytes; 5 μg/mL) [%]	Haemolysis of human blood erythrocytes (human blood erythrocytes; 5 μg/mL)	anti-fungal activity compared with Amphotericin B and S44HP [5]	Haemolysis of erythrocytes, Mean ± SE (erythrocytes) [%]	Haemolysis of erythrocytes (erythrocytes; [9])	Haemolysis of erythrocytes, Mean ± S.E.M. (erythrocytes) [%]	Haemolysis of erythrocytes (erythrocytes; [10])	MIC50 [6] [µg/mL]	LD50 [7] [mg/kg]	MTD [7] [mg/kg]	Number of Colonies ([8]; 0.08 mg/kg × 4/24 i.v.)	Number of Colonies ([8]; 0.15 mg/kg × 4/24 i.v.)	Number of Colonies ([8]; 0.3 mg/kg × 4/24 i.v.)	Number of Colonies ([8]; 0.6 mg/kg × 4/24 i.v.)
COC(=O)C(CO)NC(=O)C1C(O)CC2(O)CC(O)C(O)CCC(O)CC(O)CC(O)CC(=O)OC(C)C(C)C(O)C(C)C=CC=CC=CC=CC=CC=CC=CC(OC3OC(C)C(O)C(N)C3O)CC1O2 (mixture of isomers) [Compound 14]	1	1	2	4	2.5 ± 0.07	2.7% and 2.5% (2×)	4.9 ± 0.2	4.8% and 4.5% and 5.3%	comparable anti-fungal activity to Amphotericin B and S44HP											
CC1C=CC=CC=CC=CC=CC=CC=CC(OC2OC(C)C(O)C(N)C2O)CC2OC(O)(CC(O)C(O)CCC(O)CC(O)CC(O)CC(=O)OC(C)C(C)C1O)CC(O)C2C(N)=O (stereo not drawn) [Compound 7]	2 (≈ 2.17 µM)	1 (≈ 1.08 µM)	2 (≈ 2.17 µM)	8 (≈ 8.67 µM)						5.2 ± 0.2	5.8% and 5.0% (2×)	1.5 ± 0.17	1.7% and 1.3% and 1.9% (3×) and 1.0% and 0.9%							
CCOC(=O)CNC(=O)C1C(O)CC2(O)CC(O)C(O)CCC(O)CC(O)CC(O)CC(=O)OC(C)C(C)C(O)C(C)C=CC=CC=CC=CC=CC=CC=CC(OC3OC(C)C(O)C(N)C3O)CC1O2 (stereo not drawn) [Compound 9]	1 (≈ 0.991 µM)	1 (≈ 0.991 µM)	2 (≈ 1.98 µM)	4 (≈ 3.96 µM)					comparable anti-fungal activity to Amphotericin B and S44HP			18.4 ± 1.9	18.0% and 16.7% and 22.4% and 25% and 16.2% and 12.2%	0.13 (≈ 0.129 µM)						
COC(=O)C(CO)NC(=O)C1C(O)CC2(O)CC(O)C(O)CCC(O)CC(O)CC(O)CC(=O)OC(C)C(C)C(O)C(C)C=CC=CC=CC=CC=CC=CC=CC(OC3OC(C)C(O)C(N)C3O)CC1O2 (stereo not drawn) [Compound 13]	1 (≈ 0.975 µM)	1 (≈ 0.975 µM)	1 (≈ 0.975 µM)	4 (≈ 3.9 µM)	3.7 ± 0.6	3.3% and 3.0% and 4.9%	14.5 ± 0.5	15.5% and 14% and 14.2%	comparable anti-fungal activity to Amphotericin B and S44HP											
CC1C=CC=CC=CC=CC=CC=CC=CC(OC2OC(C)C(O)C(N)C2O)CC2OC(O)(CC(O)C(O)CCC(O)CC(O)CC(O)CC(=O)OC(C)C(C)C1O)CC(O)C2C(=O)N1CCN(CCO)CC1 (stereo not drawn) [Compound 15]	1 (≈ 0.965 µM)	2 (≈ 1.93 µM)	2 (≈ 1.93 µM)	4 (≈ 3.86 µM)						2.6 ± 0.1	2.8% and 2.4% and 2.7%			0.20 (≈ 0.193 µM)						
CC1C=CC=CC=CC=CC=CC=CC=CC(OC2OC(C)C(O)C(N)C2O)CC2OC(O)(CC(O)C(O)CCC(O)CC(O)CC(O)CC(=O)OC(C)C(C)C1O)CC(O)C2C(=O)NC1C(O)OC(CO)C(O)C1O (stereo not drawn) [Compound 16]	1 (≈ 0.921 µM)	1 (≈ 0.921 µM)	2 (≈ 1.84 µM)	8 (≈ 7.37 µM)	2.4 ± 0.12	2.3% and 2.2% and 2.6%	3.1 ± 0.14	3.1% and 2.9% and 3.4%												
CC1C=CC=CC=CC=CC=CC=CC=CC(OC2OC(C)C(O)C(N(CCCN)CCCN)C2O)CC2OC(O)(CC(O)C(O)CCC(O)CC(O)CC(O)CC(=O)OC(C)C(C)C1O)CC(O)C2C(=O)O (stereo not drawn) [Compound 22]	1 (≈ 0.963 µM)	1 (≈ 0.963 µM)	1 (≈ 0.963 µM)	1 (≈ 0.963 µM)					comparable anti-fungal activity to Amphotericin B and S44HP					0.07 (≈ 0.0674 µM)						
C[C@@H]1[C@H](O)[C@@H](C)/C=C/C=C/C=C/C=C/C=C/C=C/C=C/[C@H](O[C@@H]2O[C@H](C)[C@@H](O)[C@H](N)[C@@H]2O)C[C@@H]2O[C@](O)(C[C@@H](O)[C@H](O)CC[C@@H](O)C[C@@H](O)C[C@@H](O)CC(=O)O[C@H]1C)C[C@H](O)[C@H]2C(=O)O [Compound S44HP, reference compound]	1 (≈ 1.08 µM)	1 (≈ 1.08 µM)	1 (≈ 1.08 µM)	4 (≈ 4.33 µM)										0.12 (≈ 0.13 µM)	2.05	0.64	2.7 × 10^4 and 8.0 × 10^4 and 8.2 × 10^4	8.0 × 10^3 and 6.4 × 10^3 and 1.6 × 10^4	2.7 × 10^3 and 9.4 × 10^3 and 1.3 × 10^4	2.5 × 10^3 and 8.8 × 10^3 and 1.2 × 10^3
